Measured values reported in patent publication US20250268474A1, “Systems and Methods for Detecting Fibrosis” (3HELIX, INC., priority 2021, published 2025).
Where no end group is shown, it is not given here. [ ]: non-standard residue; d: D form. Pro(cis-4-F) = O=C(O)[C@@H]1C[C@H](F)CN1; Hyp = O=C(O)[C@@H]1C[C@@H](O)CN1

System: damaged/denatured collagen
Experiment: LCHP in vivo imaging (fundus / ICG angiography) in CNV mice
Conditions: spontaneous CNV (JR5558), FIG. 6A; 1 nmol per animal, tail vein

sulfo-Cy7.5-GGG-OfGGOfGfGfOfOGOfGOOfGGOOff ({sulfo‑Cy7.5}-GGG[Hyp][Pro(cis-4-F)]GG[Hyp][Pro(cis-4-F)]G[Pro(cis-4-F)]G[Pro(cis-4-F)][Hyp][Pro(cis-4-F)][Hyp]G[Hyp][Pro(cis-4-F)]G[Hyp][Hyp][Pro(cis-4-F)]GG[Hyp][Hyp][Pro(cis-4-F)][Pro(cis-4-F)]; not fully specified; printed as sulfo-Cy7.5-GGG-OfGGOfGfGfOfOGOfGOOfGGOOff) [scrambled sCy7.5-CHP]
signal in IR, FA and ICGA imaging: no significant signal was detected
